Experimental data taken from ChEMBL document CHEMBL1201862, “PubChem BioAssay data set” (2004).
Activity calls are given as the source filed them.

Tests used:
[1] = molecular target: Cytochrome P450 2D6 (Homo sapiens, UniProt P10635);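 further: CYP2D6 member of a cytochrome P450 panel assay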
[2] = system: HeLa; assay: HeLa cell cytotoxicity, dose response, cytotoxicity control for MITF activator project, CellTiter-Glo luminescence, cherry-pick samples (AID 540259); type: functional, cell-based; details: Homo sapiens
[3] = molecular target: Cytochrome P450 2C19 (Homo sapiens, UniProt P33261); assay: Cytochrome panel assay with activity outcomes. Panel member name: p450-cyp2c19 Compounds with AC50 equal or less than 10 uM are considered active; type: functional
Chain of Cytochrome P450 2C19 (P33261 whole entry): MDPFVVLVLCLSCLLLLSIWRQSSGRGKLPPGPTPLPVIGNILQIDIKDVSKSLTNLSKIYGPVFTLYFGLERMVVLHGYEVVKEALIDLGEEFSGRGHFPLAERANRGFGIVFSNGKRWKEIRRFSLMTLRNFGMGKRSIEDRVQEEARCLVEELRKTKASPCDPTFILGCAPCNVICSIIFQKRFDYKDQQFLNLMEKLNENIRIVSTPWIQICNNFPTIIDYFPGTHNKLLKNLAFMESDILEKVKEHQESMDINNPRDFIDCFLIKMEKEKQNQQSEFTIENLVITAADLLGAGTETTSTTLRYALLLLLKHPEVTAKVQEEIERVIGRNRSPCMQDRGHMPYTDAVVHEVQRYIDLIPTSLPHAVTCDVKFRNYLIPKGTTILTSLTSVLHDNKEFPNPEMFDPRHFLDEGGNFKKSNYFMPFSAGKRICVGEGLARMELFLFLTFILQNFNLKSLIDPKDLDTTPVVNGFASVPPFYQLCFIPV

[4] = molecular target: T1, SUMO-activating enzyme (Homo sapiens, UniProt Q9UBT2); assay: SUMOylation inhibitor hit validation, confirmation, SUMOylation inhibitor project, biochemical, AlphaScreen (AID 2018); type: functional
T1 sequence (Q9UBE0 whole entry): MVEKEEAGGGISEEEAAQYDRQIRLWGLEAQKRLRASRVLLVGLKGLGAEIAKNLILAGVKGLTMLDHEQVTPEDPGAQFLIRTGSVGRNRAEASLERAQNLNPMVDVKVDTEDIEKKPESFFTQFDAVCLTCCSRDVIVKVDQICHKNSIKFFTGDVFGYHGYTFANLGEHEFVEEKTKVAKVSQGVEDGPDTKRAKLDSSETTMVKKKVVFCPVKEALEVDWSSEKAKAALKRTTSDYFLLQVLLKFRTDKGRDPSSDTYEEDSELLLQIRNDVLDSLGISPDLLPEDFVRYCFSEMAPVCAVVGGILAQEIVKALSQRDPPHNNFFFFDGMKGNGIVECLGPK
T1 sequence (Q9UBT2 whole entry): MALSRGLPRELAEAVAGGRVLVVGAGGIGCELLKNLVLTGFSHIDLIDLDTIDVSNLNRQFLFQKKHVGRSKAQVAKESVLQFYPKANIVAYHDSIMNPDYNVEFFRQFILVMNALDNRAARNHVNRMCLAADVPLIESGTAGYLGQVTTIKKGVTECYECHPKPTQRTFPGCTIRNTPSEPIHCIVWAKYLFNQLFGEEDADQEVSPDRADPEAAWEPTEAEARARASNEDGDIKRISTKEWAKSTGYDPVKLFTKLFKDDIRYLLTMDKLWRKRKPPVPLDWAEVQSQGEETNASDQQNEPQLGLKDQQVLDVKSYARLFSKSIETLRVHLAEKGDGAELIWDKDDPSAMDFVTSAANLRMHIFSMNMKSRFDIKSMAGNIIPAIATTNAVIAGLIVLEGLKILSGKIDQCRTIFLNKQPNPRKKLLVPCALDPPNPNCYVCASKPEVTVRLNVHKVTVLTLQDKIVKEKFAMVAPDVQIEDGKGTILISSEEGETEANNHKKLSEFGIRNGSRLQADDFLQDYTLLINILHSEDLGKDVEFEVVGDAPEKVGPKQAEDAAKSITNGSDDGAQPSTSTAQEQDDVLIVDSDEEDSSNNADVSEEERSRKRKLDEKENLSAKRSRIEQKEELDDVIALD

[5] = molecular target: T1, SUMO-activating enzyme; assay: inhibitors of in vitro SUMOylation cascade, primary screen, biochemical, HTRF, uHTS (AID 2006); type: protein-complex assay
[6] = molecular target: Alkaline phosphatase, placental type (Homo sapiens, UniProt P05187); assay: PLAP enzyme inhibitors, confirmation, biochemical, luminescence (AID 1512); type: functional
Chain of Alkaline phosphatase, placental type (P05187 whole entry): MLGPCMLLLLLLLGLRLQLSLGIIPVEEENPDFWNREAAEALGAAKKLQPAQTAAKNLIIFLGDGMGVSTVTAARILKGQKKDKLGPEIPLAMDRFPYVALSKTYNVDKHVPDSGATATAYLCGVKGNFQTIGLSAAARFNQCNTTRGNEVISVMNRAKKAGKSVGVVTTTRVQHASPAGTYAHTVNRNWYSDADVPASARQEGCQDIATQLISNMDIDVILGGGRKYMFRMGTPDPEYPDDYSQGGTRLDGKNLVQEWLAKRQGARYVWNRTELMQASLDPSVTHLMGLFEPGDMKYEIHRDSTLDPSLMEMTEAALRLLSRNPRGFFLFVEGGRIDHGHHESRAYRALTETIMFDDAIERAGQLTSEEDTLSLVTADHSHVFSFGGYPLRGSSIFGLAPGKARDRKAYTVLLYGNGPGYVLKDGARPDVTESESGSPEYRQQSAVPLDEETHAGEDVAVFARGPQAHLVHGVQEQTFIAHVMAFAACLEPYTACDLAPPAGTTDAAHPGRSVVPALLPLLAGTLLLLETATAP

[7] = molecular target: T2, Alkaline phosphatase, tissue-nonspecific isozyme (Homo sapiens, UniProt P05186); assay: human TNAP enzyme inhibitors, SAR follow-up, biochemical, luminescent, dose response (AID 1056)
T2 sequence (P05186 whole entry): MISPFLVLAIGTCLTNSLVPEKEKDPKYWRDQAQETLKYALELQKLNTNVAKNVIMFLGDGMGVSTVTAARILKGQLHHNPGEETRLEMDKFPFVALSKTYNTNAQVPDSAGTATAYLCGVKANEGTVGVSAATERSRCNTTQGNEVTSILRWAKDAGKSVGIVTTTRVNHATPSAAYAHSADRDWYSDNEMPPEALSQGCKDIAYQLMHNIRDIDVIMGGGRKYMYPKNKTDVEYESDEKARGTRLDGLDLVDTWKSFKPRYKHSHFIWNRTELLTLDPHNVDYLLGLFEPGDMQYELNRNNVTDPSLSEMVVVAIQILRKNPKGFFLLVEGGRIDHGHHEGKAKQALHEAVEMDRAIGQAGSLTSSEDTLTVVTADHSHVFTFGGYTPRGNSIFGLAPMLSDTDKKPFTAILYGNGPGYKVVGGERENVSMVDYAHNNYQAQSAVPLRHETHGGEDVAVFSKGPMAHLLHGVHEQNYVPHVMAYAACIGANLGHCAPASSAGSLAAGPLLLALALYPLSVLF

[8] = molecular target: T3, Histone-lysine N-methyltransferase NSD2 (Homo sapiens, UniProt O96028); type: biochemical
T3 sequence (O96028 whole entry): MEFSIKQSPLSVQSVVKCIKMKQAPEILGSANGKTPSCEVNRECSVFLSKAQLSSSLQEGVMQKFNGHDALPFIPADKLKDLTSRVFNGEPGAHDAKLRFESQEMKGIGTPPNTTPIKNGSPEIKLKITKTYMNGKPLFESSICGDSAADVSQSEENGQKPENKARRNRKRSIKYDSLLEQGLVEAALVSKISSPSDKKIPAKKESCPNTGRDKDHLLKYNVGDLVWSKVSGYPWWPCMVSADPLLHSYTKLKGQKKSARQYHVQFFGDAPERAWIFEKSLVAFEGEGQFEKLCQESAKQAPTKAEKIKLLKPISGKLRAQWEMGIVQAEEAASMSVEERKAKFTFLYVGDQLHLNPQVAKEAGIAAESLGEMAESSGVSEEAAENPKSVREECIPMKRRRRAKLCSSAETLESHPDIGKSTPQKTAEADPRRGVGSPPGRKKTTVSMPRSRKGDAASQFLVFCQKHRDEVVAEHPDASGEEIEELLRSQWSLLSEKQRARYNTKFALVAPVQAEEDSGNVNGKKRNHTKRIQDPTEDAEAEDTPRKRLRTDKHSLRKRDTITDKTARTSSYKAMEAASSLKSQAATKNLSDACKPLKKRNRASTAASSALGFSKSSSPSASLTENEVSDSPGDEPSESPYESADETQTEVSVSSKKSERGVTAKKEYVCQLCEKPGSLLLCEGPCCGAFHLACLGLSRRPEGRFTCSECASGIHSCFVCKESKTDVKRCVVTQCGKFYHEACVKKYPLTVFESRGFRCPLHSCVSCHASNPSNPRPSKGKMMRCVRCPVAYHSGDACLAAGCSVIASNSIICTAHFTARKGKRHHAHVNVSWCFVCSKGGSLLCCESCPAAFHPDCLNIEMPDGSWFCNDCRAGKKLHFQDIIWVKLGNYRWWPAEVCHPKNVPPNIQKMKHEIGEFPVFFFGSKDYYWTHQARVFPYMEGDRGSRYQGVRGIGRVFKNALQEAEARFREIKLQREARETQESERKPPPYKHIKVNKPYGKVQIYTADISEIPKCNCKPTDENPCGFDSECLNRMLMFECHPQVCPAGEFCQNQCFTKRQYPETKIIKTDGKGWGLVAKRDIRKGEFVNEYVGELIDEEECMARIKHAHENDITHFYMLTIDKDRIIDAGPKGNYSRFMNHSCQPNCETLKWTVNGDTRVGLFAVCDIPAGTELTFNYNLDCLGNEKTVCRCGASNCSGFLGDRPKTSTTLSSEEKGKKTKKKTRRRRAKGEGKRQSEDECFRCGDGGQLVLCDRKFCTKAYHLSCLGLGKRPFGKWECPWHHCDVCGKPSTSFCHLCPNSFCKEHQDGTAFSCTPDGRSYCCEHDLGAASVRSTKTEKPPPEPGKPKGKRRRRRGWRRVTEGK

[9] = molecular target: Induced myeloid leukemia cell differentiation protein Mcl-1 (Homo sapiens, UniProt Q07820); type: functional
Chain of Induced myeloid leukemia cell differentiation protein Mcl-1 (Q07820 whole entry): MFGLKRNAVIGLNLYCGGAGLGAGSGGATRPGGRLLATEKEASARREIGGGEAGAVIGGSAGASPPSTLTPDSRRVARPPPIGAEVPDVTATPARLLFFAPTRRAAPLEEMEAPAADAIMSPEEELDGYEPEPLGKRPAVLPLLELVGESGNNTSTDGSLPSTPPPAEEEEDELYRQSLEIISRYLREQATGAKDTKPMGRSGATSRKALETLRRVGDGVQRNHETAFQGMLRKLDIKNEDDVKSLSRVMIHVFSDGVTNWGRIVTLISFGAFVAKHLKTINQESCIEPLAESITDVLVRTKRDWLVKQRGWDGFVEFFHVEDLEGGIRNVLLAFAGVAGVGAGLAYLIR

[10] = Vero E6 cell cytotoxicity, dose response, cytotoxicity control for non-replicating M. tuberculosis project, secondary assay (AID 492998); type: functional, VeroE6; details: Vero C1008
[11] = cells; type: functional
[12] = molecular target: T4, Rac GTPase-activating protein 1 (Homo sapiens, UniProt Q9H0H5); assay: MgcRacGAP GTPase-activating activity inhibitors, confirmation, biochemical, ADP Hunter fluorescence, primary and confirmatory (AID 624330); type: functional
T4 sequence (Q9H0H5 whole entry): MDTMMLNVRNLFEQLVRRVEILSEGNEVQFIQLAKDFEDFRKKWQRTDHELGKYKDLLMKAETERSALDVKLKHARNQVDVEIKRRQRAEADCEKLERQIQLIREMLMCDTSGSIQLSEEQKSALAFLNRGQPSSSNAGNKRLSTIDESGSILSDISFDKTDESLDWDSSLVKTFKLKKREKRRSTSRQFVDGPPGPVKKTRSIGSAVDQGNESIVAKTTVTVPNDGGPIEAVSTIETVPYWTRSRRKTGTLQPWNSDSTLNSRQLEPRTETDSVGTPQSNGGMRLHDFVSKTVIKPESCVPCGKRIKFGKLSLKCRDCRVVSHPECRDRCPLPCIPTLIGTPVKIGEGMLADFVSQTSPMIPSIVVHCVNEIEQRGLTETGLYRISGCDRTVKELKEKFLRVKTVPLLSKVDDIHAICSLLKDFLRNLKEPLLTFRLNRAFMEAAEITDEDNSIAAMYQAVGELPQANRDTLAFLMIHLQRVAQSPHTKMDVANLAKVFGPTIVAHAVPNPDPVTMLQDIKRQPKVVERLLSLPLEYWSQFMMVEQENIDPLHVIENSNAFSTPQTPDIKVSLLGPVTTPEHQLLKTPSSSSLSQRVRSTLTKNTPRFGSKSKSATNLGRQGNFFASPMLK

[13] = molecular target: T5, Cytochrome P450 1A2 (Homo sapiens, UniProt P05177);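 further: PubChem cytochrome P450 panel assay, CYP1A2 panel member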
T5 sequence (P05177 whole entry): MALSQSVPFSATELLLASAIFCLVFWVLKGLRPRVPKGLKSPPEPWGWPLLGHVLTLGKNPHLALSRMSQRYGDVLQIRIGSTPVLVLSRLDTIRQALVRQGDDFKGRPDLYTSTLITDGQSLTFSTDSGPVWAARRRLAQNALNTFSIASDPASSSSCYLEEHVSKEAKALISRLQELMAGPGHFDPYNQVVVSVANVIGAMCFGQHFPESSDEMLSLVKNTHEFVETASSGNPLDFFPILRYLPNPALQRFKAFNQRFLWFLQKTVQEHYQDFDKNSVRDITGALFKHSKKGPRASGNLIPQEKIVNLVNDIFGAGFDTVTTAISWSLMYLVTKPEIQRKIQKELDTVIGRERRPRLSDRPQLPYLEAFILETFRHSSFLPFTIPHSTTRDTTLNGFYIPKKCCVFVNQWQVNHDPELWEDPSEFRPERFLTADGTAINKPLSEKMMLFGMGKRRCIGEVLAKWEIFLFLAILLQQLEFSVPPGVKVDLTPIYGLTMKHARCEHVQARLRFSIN

[14] = molecular target: Cytochrome P450 2C9 (Homo sapiens, UniProt P11712)
Chain of Cytochrome P450 2C9 (P11712 whole entry): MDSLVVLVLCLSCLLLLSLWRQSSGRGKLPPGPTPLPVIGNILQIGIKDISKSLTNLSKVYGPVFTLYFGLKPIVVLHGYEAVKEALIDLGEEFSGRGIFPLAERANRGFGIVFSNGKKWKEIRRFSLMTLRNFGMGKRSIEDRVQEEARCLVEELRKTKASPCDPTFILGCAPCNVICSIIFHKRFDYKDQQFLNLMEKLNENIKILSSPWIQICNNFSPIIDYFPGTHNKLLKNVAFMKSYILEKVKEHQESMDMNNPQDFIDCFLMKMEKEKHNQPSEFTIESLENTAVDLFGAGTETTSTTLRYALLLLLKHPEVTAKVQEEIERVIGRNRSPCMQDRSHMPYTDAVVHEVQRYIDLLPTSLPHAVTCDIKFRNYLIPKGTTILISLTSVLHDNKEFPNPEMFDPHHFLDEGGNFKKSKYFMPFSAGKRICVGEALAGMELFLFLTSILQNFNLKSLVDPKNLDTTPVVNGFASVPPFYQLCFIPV

[15] = system: Streptococcus sp. 'group A'; assay: growth inhibition of control SK(-) GAS strain, dose response, counter-screen for streptokinase expression inhibitor project, luminescence, kanamycin, BacTiterGlo, confirmation (AID 1900); type: functional, organism-based
[16] = molecular target: T6, Streptokinase A (Streptococcus pyogenes serotype M1, UniProt P10520); assay: S. pyogenes streptokinase expression inhibitors, potency, dose response, plasminogen activation absorbance, OD405 (AID 1914); type: functional, Streptococcus pyogenes M1 GAS;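 further: secreted streptokinase activity via plasminogen activation per viability signal from cell pellet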
T6 sequence (P10520 whole entry): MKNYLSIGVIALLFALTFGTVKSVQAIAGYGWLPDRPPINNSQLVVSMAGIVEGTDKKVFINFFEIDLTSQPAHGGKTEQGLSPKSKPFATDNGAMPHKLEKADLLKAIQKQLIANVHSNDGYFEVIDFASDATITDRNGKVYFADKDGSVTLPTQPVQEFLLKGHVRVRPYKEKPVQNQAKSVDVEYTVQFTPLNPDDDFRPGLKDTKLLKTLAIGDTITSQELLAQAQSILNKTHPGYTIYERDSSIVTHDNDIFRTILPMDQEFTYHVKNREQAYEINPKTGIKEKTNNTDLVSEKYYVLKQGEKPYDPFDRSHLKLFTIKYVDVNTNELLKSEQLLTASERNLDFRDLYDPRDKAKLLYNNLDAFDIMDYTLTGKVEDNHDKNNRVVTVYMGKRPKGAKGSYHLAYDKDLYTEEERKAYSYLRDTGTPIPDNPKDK

[17] = system: Streptococcus; assay: Group A Streptococcus viability loss, dose response, counter-screen for streptokinase expression inhibitor project, luminescence, BacTiterGlo (AID 1915); type: functional, organism-based;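 further: potency for reduction of bacterial viability or growth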
[18] = THP-1 cell cytotoxicity, dose response, cytotoxicity control for non-replicating M. tuberculosis project (AID 489025); type: functional
[19] = HEp-2 cell cytotoxicity, dose response, cytotoxicity control for RSV inhibitor project, HTS (AID 2410); type: functional; details: human respiratory syncytial virus
[20] = system: Vero; assay: cells; type: functional, cell-based; details: Chlorocebus sabaeus
[21] = cells
[22] = molecular target: T7, Microphthalmia-associated transcription factor (Homo sapiens, UniProt O75030); assay: TRPM1 promoter luciferase signal decrease, dose response, MITF inhibitor project, cell-based, SK-MEL-5, cherry-picked, set 3 (AID 493073); type: functional
T7 sequence (O75030 whole entry): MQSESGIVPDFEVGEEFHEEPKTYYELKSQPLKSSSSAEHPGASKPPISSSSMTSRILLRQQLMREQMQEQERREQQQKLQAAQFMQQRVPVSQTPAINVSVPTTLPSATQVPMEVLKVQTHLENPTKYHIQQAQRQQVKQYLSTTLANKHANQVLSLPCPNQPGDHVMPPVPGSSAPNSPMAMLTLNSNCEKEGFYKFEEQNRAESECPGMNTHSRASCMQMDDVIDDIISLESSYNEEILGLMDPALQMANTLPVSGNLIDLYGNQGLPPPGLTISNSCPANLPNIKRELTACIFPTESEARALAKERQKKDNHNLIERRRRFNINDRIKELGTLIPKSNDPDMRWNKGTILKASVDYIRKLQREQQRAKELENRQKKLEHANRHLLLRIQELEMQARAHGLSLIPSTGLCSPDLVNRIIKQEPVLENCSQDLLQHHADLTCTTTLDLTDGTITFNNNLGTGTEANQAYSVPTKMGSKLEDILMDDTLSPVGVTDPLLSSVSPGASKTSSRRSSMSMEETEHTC

[23] = system: Vero; assay: cells; type: functional; details: Chlorocebus sabaeus

Chain of Cytochrome P450 2D6 (P10635 whole entry): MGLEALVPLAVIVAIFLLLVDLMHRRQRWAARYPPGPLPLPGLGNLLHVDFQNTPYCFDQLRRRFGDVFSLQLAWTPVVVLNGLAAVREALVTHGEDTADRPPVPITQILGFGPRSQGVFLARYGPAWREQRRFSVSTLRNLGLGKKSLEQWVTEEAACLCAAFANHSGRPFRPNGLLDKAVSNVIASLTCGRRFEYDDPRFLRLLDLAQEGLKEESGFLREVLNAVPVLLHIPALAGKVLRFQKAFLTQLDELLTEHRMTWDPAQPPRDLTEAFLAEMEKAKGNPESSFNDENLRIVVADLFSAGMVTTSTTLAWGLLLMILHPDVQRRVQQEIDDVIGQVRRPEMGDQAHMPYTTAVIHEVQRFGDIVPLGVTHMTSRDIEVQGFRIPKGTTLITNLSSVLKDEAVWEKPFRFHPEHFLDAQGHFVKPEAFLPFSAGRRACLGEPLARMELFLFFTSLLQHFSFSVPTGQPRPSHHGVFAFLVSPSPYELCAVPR

O=C(O)c1nn(-c2ccccc2)nc1-c1nn(-c2ccccc2)nc1C(=O)O
AC50 [1]: inconclusive

CCNc1nc(N)nc(Oc2ccc(C(=O)OC)cc2)n1
AC50 [2]: 245 µM (active)

C[C@@H](c1ccccc1)N1C(=O)[C@H]2[C@@H]3[C@H](O)C=CC(=O)[C@H]3CC[C@H]2C1=O
AC50 [3]: inconclusive
AC50 [1]: inconclusive

COc1ccc(C(=O)Nc2ccc(-c3nnn(CC(=O)N4CCN(C(=O)c5ccco5)CC4)n3)cc2)cc1
IC50 [4]: 13 µM (active)
IC50 [5]: 30 µM (active)

NC(=O)c1ccc(-n2nnnc2SCC(=O)c2ccc(O)c(O)c2)cc1
IC50 [6]: 1.76 µM (active)
IC50 [7]: 3.48 µM (active)
AC50 [8]: > 20 µM (inactive)

CCN(CC)c1ccc(NC(=O)CSc2nc(C3CC3)nc3ccccc23)cc1C
IC50 [4]: 7.43 µM (active)
IC50 [5]: 27 µM (active)

COc1cc(NCCC(=O)c2cccs2)c(OC)cc1Cl
IC50 [9]: 4.38 µM (not active)
CC50 [10]: > 20 µM (active)
IC50 [11]: 8.46 µM (active)
IC50 [12]: 58.1 µM (active)

Oc1ccc(N=Nc2ccccc2)cc1
AC50 [2]: 98.1 µM (active)
IC50 [12]: 70.9 µM (active)

Cc1cc(C)nc(Nc2n[nH]c(-c3cccc4ccccc34)n2)n1
AC50 ([3]; read-out: AC50): 17.8 µM (inconclusive)
AC50 [1]: inconclusive

COc1ccc(/C=N/C(CO)C(O)c2ccc([N+](=O)[O-])cc2)cc1 (centres undefined)
AC50 [13]: 20 µM (inconclusive)
AC50 [14]: 2.51 µM (inconclusive)
AC50 [1]: inconclusive

CCCCCC/C(=N/O)c1ccccn1
EC50 [15]: 7.92 µM (active)
EC50 [16]: > 150 µM (not active)
EC50 [17]: 40 µM (active)
CC50 [18]: 20.2 µM (active)
CC50 [10]: 15.2 µM (active)
IC50 [11]: 6.74 µM (active)

C/C(N)=C(/C#N)C(=O)COC(=O)c1cc(C)n(-c2ccc(F)cc2)c1C
CC50 [19]: 18.8 µM (active)
IC50 [20]: 8.93 µM (active)
IC50 [21]: 29.9 µM (active)

CCCN1CCC(NCc2cn(C)nc2-c2ccc(Oc3ccccc3)cc2)CC1
AC50 [22]: 8.35 µM (active)
IC50 [20]: 23.1 µM (active)
CC50 [23]: > 25 µM (active)
